{"source": "patent US9029403B2", "about": "“Treatment of ovarian cancer with benzylidenebenzohydrazides” (Memorial Sloan-Kettering Cancer Center, priority 2011, dated 2015)", "test_system": "NSG mice", "test": "In vivo toxicity in NSG mice", "settings": "intraperitoneal, 1, 2.5, 5, 10, 20 or 40 mg/kg, once or three times a week for 4 weeks", "description": "The compound designated example 10 above was tested in vivo for toxicity in NSG mice. As used herein, NSG and NSG mice mean the NOD scid gamma (NSG) mice, or an equivalent, available from The Jackson Laboratory and which are the NOD.Cg-Prkdc^scid I12rg^tm1Wj1/SzJ JAX® Mice strain. The NSG mice were injected intraperitoneally with 1, 2.5, 5, 10, 20 or 40 mg/kg of the compound designated example 10 above for once or three times a week for 4 weeks."}
{"smiles": "Cc1ccc(C(=O)N/N=C/c2c(O)ccc3ccccc23)cn1", "note": "[example 10]", "values": [{"measurement": "overt toxicity", "value": "no overt toxicity"}]}
